These are literature values, as cited in article PMC5957517 (Biochimica et biophysica acta, 2018).

For this series, the system named is MRSA infections. To be noted: ref [43],[44].

As for `CN[C@H](CC(C)C)C(=O)N[C@H]1C(=O)N[C@@H](CC(N)=O)C(=O)N[C@H]2C(=O)N[C@H]3C(=O)N[C@H](C(=O)N[C@H](C(=O)O)c4cc(O)cc(O)c4-c4cc3ccc4O)[C@H](O)c3ccc(c(Cl)c3)Oc3cc2cc(c3O[C@@H]2O[C@H](CO)[C@@H](O)[C@H](O)[C@H]2O[C@H]2C[C@](C)(N)[C@H](O)[C@H](C)O2)Oc2ccc(cc2Cl)[C@H]1O` [vancomycin], the reported clinical efficacy was 35-57%.
